From patent US20250339443A1, “METHOD FOR TREATING OR PREVENTING CALCIUM RELEASE-ACTIVATED CALCIUM CHANNEL OR DISCOIDIN DOMAIN RECEPTOR 2 RELATED DISORDERS OR CONDITIONS” (LumiSTAR Biotechnology, Inc., priority 2023, published 2025)

Legend:
[1] = target: T1, Stim1 or Orai1 puncta (Homo sapiens, UniProt Q96D31); assay: Orai1 and Stim1 puncta in HEK293T cells overexpressing CFP-Orai1/Stim1-mCherry after thapsigargin; assay type: cell-based; conditions: 10 μM pretreatment 30 min, 1 μM thapsigargin 15 min
T1 construct: expressed in transfected cells; host or cells: HEK293T
Description: FIG. 1A, FIG. 1B, FIG. 1C, FIG. 1D, FIG. 1E, FIG. 1F, FIG. 1G, FIG. 1H, FIG. 1I, FIG. 1J, FIG. 1K, FIG. 1L, FIG. 1M, and FIG. 1N show WRG-28 and atovaquone (Av) suppress the activation of DDR2 and calcium release-activated calcium (CRAC) channel. FIG. 1A indicates HEK293T cells were transiently overexpressed with DDR2 and then pretreated with different compounds (10 μM), including WRG-28, Av, donepezil hydrochloride (Dh), terazosin hydrochloride (Th), verapamil and flecainide for 30 minutes. Verapamil and flecainide were used as negative control here. After that, cells were treated with 50 μg/mL type I collagen for 12 hours. Cell lysates were harvested and subjected to Western blot analysis with antibodies against phosphotyrosine antibody (clone 4G10), DDR2, and β-actin. […] CRAC channel activity was evaluated by applying 1 μM thapsigargin (Thap.) in a calcium-free solution to deplete the endoplasmic reticulum calcium store, followed by the reintroduction of 2 mM Ca^2+ in an external solution. The concentration of cytosolic calcium ions increases as calcium flows through the CRAC channel, leading to the second peak in cytosolic calcium waves. […] Further analyses are presented in FIG. 1I and FIG. 1J, where the second peak of each wave and rate of entry were analyzed. […] The Orai1 and Stim1 puncta in HEK293T cells overexpressed with CFP-Orai1/Stim1-mCherry were assessed. […]

[2] = system: CCL-226 cells; assay: TGF-β1-induced pericyte-to-myofibroblast activation (Western blot); assay type: cell-based, mouse; conditions: CCL-226, 10 μM, 24 hours
Description: FIG. 2A, FIG. 2B, FIG. 2C, FIG. 2D, FIG. 2E, FIG. 2F, FIG. 2G-1, and FIG. 2G-2 display how WRG-28 and Av suppress TGF-β1-induced fibroblasts activation and the differentiation of pericytes into myofibroblasts. […] Each bar represents the mean #SEM. […] The protein levels of collagen 1a1 and α-SMA were assessed using Western blot analysis under various conditions. […] Each bar represents mean±SEM. […] The images were acquired using a confocal microscope (Olympus, MPE). FIG. 2G-1 and FIG. 2G-2 display the measurement of angles between collagen fibers and the cell membrane, conducted using Image J. At least five different images from each condition were analyzed. Each bar represents mean±SEM. […]
Cell lysates were harvested in RIPA buffer (150 mM NaCl, 1 mM EGTA, 50 mM Tris pH 7.4, 10% glycerol, 1% Triton X-100, 1% sodium deoxycholate, 0.1% SDS, and protease inhibitor cocktail) and collected from culture dish with cell scrapers. […] The protein expression levels were assessed by specific primary antibodies, including antibodies against phosphotyrosine (clone 4G10; Millipore), DDR2 (R&D), α-SMA (Sigma), Collagen 1a1 (Boster), E-cadherin (BD Biosciences), SGLT2 (Proteintech), NHE1 (Novus) and β-actin (Clone C4, Millipore), followed by incubating with secondary antibodies conjugated with HRP and detected by ECL kit (Thermo Scientific). […]

T1 sequence (Q96D31 whole entry): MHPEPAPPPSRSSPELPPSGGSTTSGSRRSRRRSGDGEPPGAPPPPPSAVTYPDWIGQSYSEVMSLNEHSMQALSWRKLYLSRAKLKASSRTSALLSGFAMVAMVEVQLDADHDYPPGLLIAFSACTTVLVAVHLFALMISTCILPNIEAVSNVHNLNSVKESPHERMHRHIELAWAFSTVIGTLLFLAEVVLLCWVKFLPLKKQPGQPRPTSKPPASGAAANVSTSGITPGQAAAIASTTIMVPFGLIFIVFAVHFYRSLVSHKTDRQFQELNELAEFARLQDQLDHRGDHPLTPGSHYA

formation of Stim1 or Orai1 puncta induced by store depletion [1]	SMILES	TGF-β1-induced upregulation of collagen 1a1 and α-SMA in pericyte [2]
unaffected	Cc1nnsc1C(=O)Nc1ccc(-n2nc(C(F)(F)F)cc2C(F)(F)F)cc1 [BTP2]	significantly suppressed
unaffected	CCNS(=O)(=O)c1ccc(COc2ccc3nc4ccc(=O)cc-4oc3c2)cc1 [WRG-28]	significantly suppressed
